Results reported in patent US4877778A, “Method of enhancing lipophile transport using cyclodextrin derivatives” (priority 1987, dated 1989).

Columns and labels:
[1] = system: patient with severe, chronic hypervitaminosis A; conditions: human, in vivo
Protocol: (§1) The infusion was therefore discontinued and 250 mL of fresh frozen plasma was administered over 3 hours.

[2] = in vivo
Protocol: as §1

Substance: 2-hydroxypropyl-β-cyclodextrin
- symptoms during infusion [1]: generalized irritability and pain in the legs and shins
- LDM [2]: 536 U/L
- Serum pH and concentrations of glucose, protein, albumin, calcium, phosphate, and hepatic transaminases [2]: remained normal throughout the infusion
- chloride [2]: 107 M EQ/L
- sodium [2]: 138 M EQ/L
